Test results from patent US9242977B2, “Trk-inhibiting compound” (ONO PHARMACEUTICAL CO., LTD., priority 2012, dated 2016).

Columns and labels:
TrkA [1] = molecular target: T1, TrkA (Homo sapiens (Human), UniProt P04629); assay: Measurement of TrkA enzyme-inhibiting activity (LanthaScreen TR-FRET kinase assay); type: biochemical; conditions: final ATP 150 μM, read-out: TrkA inhibitory activity (IC50; μM)
Method: TrkA-inhibiting activity was measured according to the following method using LanthaScreen™ kinase assay reagents (Invitrogen; Fluorescein-Poly GT, LanthaScreen™ Tb-PY20 and TR-FRET Dilution Buffer), TrkA (Invitrogen), ATP (Sigma-Aldrich), a kinase reaction buffer (50 mM HEPES buffer (Sigma-Aldrich) (pH 7.5) containing 0.01% Brij35 (Sigma-Aldrich), 10 mM MgCl2 (Sigma-Aldrich) and 1 mM EGTA (Sigma-Aldrich)) and 0.5 M EDTA (pH 8.0) (Invitrogen).
The present compound was dissolved in dimethylsulfoxide (hereinafter abbreviated as DMSO) to prepare a 10 mM solution. The test compound at 10 mM was distributed into a 96-well plate and serially diluted with DMSO with the geometrical ratio of 3. The serial dilutions (DMSO solutions) were diluted with the kinase reaction buffer to 20-fold to prepare solutions of the present compound with 5-times concentrations (DMSO concentration: 5%). TrkA was diluted with the kinase reaction buffer to prepare a solution at 38.5 ng/mL (enzyme solution). Adenosine triphosphate (hereinafter abbreviated as ATP) was preliminarily diluted in distilled water to prepare a 10 mM solution which was then divided into containers and stored at −20° C. The 10 mM ATP solution and Fluorescein-Poly GT were diluted in the kinase reaction buffer to prepare a solution containing […] of ATP and 500 nM of Fluorescein-Poly GT (ATP-substrate solution). EDTA (0.5 M; pH 8.0) and LanthaScreen™ Tb-PY20 were diluted in the TR-FRET Dilution Buffer to prepare a solution containing 20 mM of EDTA and 4 nM of LanthaScreen™ Tb-PY20 (detection buffer).
The solutions of the present compound (5 μL/well) and the enzyme solution (10 μL/well) were added to a 96-half well assay plate and the plate was shaken at room temperature for 10 minutes on a plate shaker (IKA™ MTS2/4 digital microplate, IKA Japan K.K.). As a control and a blank, the kinase reaction buffer containing 5% DMSO (5 μL/well) was added in place of the solution of the present compound. As a blank, the kinase reaction buffer (10 μL/well) was added in the place of the enzyme solution. The ATP-substrate solution (10 μL/well) was then added to the plate to initiate kinase reaction and the plate was shaken in the dark at room temperature for 1 hour on the plate shaker (final concentration of TrkA: 15.4 ng/mL, final concentration of the substrate: 200 nM and final concentration of ATP: 150 μM). Kinase reaction was terminated by adding the detection buffer (25 μL/well) to the plate and the plate was shaken in the dark at room temperature for 30 minutes on the plate shaker. On an Analyst GT (Molecular Devices Japan, K.K.) the wells were irradiated with excitation light at 340 nm and the fluorescence intensities at 520 nm and 495 nm were measured. The fluorescence intensity at 520 nm for each well was divided by the fluorescence intensity at 495 nm to calculate the time resolved fluorescence resonance energy transfer (TR-FRET) ratio.
The inhibition rate (%) of the present compound was calculated according to the following Equation 1: Inhibition rate (%)={1−(AX−AB)/(AC−AB)×100 Equation 1
wherein AX: the TR-FRET ratio when the present compound is added;
AB: the TR-FRET of the blank; and
AC: the TR-FRET of the control.
The value for 50% inhibition by the present compound (IC50 value) was calculated from the inhibition curve based on the inhibition rate of the present compound at respective concentrations.

TrkA [2] = molecular target: T1, TrkA; assay: TrkA kinase-inhibiting activity using human TrkA expressing cells (CellSenser TrkA-NFAT-bla CHO-K1, NGF-stimulated reporter assay); type: cell-based; conditions: CHO-K1 cells expressing human TrkA and NFAT-bla; NGF 50 ng/ml; read-out: TrkA inhibitory activity (IC50; μM)
Method: TrkA kinase-inhibiting activity in cell systems was measured using CHO-K1 cells expressing human TrkA and NFAT-bla (CellSenser™ TrkA-NFAT-bla CHO-K1 cells, Invitrogen).
On the day before the assay, CellSenser™ TrkA-NFAT-bla CHO-K1 cells were suspended in an assay medium (Opti-MEM1 Reduced Serum Medium (Invitrogen) containing 0.5% dialysed fetal bovine serum (Invitrogen), 0.1 mM nonessential amino acids (Invitrogen), 1 mM sodium pyruvate (Invitrogen) and antibiotics (100 U/mL penicillin and 100 μg/mL streptomycin (Invitrogen)) and plated at a density of 2.4×10^4 cells/40 μL/well in a 96-well clear bottom plate (Corning, Catalogue No.: 3882). In some wells were added only the assay medium at 40 μL/well (Cell-free). On the day of the assay, 10 mM of the present compound (DMSO solution) was distributed in a 96-well plate (Costar, Catalogue No.: 3363) and serially diluted with DMSO with the geometrical ratio of 3. The serial dilutions were diluted with the assay medium to 100-fold to prepare a solution of the present compound with a 10-times concentration (DMSO concentration: 1%). To the plate where cells were plated was added the present compound at 5 μL/well and the plate was incubated in a CO2 incubator with 5% CO2, 95% Air at 37° C. for 30 minutes. For a control and a blank, the assay medium containing 1% DMSO was added at 5 μL/well in place of the solution of the present compound. Subsequently the assay medium containing NGF (Mouse 2.5s, Natural, Invitrogen) was added to the plate at 5 µL/well (final concentration of NGF: 50 ng/ml) and the plate was incubated in a CO2 incubator with 5% CO2, 95% Air at 37° C. for 5 hours. For a group of blanks, the assay medium was added in place of NGF at 5 μL/well. A reporter assay detection reagent (10 μL/well) was added to the plate and the plate was then incubated in the dark at room temperature for 120 minutes. The reporter assay detection reagent was prepared from LiveBLAzer™-FRET B/G Loading Kit (Invitrogen). On an Analyst GT (Molecular Devices Japan, K.K.) the wells were irradiated with excitation light at 405 nm and the fluorescence intensities at 460 nm and 530 nm were measured. The time resolved fluorescence resonance energy transfer (TR-FRET) ratio of each well was calculated according to the following Equation 2. TR-FRET Ratio=(A460X−A460F)/(A530X−A530F) Equation 2
wherein A460X: the fluorescence intensity at 460 nm of the present compound, control or blank;
A460F: the fluorescence intensity at 460 nm of the Cell-free;
A530X: the fluorescence intensity at 530 nm of the present compound, control or blank; and
A530F: the fluorescence intensity at 530 nm of the Cell-free. […]
The IC50 value of the present compound was calculated from the inhibition curve based on the inhibition rate of the present compound at respective concentrations.

T1 sequence (P04629 33-796): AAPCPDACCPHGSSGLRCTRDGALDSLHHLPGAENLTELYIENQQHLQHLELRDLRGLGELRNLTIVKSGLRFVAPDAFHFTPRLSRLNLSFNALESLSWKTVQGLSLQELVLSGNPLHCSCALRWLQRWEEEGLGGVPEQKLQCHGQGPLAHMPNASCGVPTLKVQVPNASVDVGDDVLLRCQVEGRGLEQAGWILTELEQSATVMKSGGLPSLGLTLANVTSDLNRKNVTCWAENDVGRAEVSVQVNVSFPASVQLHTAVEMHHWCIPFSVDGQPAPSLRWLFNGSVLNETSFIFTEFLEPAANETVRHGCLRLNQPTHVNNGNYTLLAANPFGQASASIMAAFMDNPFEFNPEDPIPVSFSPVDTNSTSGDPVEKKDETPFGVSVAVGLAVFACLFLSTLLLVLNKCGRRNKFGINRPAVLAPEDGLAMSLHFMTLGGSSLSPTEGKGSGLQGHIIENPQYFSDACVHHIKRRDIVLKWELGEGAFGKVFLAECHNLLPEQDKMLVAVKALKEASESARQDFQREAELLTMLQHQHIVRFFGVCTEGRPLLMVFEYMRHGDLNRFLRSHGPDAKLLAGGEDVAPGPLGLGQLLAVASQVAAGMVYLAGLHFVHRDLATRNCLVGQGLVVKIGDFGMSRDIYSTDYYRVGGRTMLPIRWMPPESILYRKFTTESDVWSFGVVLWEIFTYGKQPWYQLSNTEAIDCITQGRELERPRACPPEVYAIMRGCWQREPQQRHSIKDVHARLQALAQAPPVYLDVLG

Compound | IC50 (TrkA [1]) [µM] | IC50 (TrkA [2]) [µM]
COC(=O)c1cccc(-n2nc(C(C)(C)C)cc2NC(=O)Nc2cnc(Oc3ccc(-c4cnc(N5CCCC5=O)s4)cc3)nc2)c1 [Example 66-27, Methyl 3-[3-(2-methyl-2-propanyl)-5-{[(2-{4-[2-(2-oxo-1-pyrrolidinyl)-1,3-thiazol-5-yl]phenoxy}-5-pyrimidinyl)carbamoyl]amino}-1H-pyrazol-1-yl]benzoate] | 0.13 | 0.01
CC(C)(C)c1cc(NC(=O)Nc2cnc(Oc3ccc(-c4cnc(N5CCCC5=O)s4)cc3)nc2)n(-c2ccc3c(c2)CCO3)n1 [Example 66-19, 1-[1-(2,3-dihydro-1-benzofuran-5-yl)-3-(2-methyl-2-propanyl)-1H-pyrazol-5-yl]-3-(2-{4-[2-(2-oxo-1-pyrrolidinyl)-1,3-thiazol-5-yl]phenoxy}-5-pyrimidinyl)urea] | 0.02 | 0.004
Cn1ncc2cc(-n3nc(C(C)(C)C)cc3NC(=O)Nc3cnc(Oc4ccc(-c5cnc(N6CCCC6=O)s5)cc4)nc3)ccc21 [Example 71, 1-[1-(1-methyl-1H-indazol-5-yl)-3-(2-methyl-2-propanyl)-1H-pyrazol-5-yl]-3-(2-{4-[2-(2-oxo-1-pyrrolidinyl)-1,3-thiazol-5-yl]phenoxy}-5-pyrimidinyl)urea] | 0.03 | 0.002
O=C(Nc1cnc(Oc2ccc(-c3cnc(N4CCCCC4=O)s3)cc2)nc1)Nc1cc(C(F)(F)F)cnc1-c1ccc(C(F)(F)F)nc1 [Example 9, 1-[5,6′-bis(trifluoromethyl)-2,3′-bipyridin-3-yl]-3-(2-{4-[2-(2-oxo-1-piperidinyl)-1,3-thiazol-5-yl]phenoxy}-5-pyrimidinyl)urea] | 0.16 | 0.093
O=C(Nc1cnc(Oc2ccc(-c3cnc(N4CCCC4=O)s3)cc2)nc1)Nc1cc(C2CC2)nn1-c1ccccc1 [Example 72-7, 1-(3-cyclopropyl-1-phenyl-1H-pyrazol-5-yl)-3-(2-{4-[2-(2-oxo-1-pyrrolidinyl)-1,3-thiazol-5-yl]phenoxy}-5-pyrimidinyl)urea] | 0.03 | 0.033
Cc1ccc(-c2ncc(C(F)(F)F)cc2NC(=O)Nc2cnc(Oc3ccc(-c4cnc(N5CCCCCC5=O)s4)cc3)nc2)cc1C [Example 59, 1-[2-(3,4-dimethylphenyl)-5-(trifluoromethyl)-3-pyridinyl]-3-(2-{4-[2-(2-oxo-1-azepanyl)-1,3-thiazol-5-yl]phenoxy}-5-pyrimidinyl)urea] | 0.19 | 0.07
CC(C)c1ncc(C(F)(F)F)cc1NC(=O)Nc1cnc(Oc2ccc(-c3cnc(N4CCCC4=O)s3)cc2)nc1 [Example 84-41, 1-[2-isopropyl-5-(trifluoromethyl)-3-pyridinyl]-3-(2-{4-[2-(2-oxo-1-pyrrolidinyl)-1,3-thiazol-5-yl]phenoxy}-5-pyrimidinyl)urea] | 0.09 | –
O=C(Nc1cnc(Oc2ccc(-c3cnc(N4CCCC4=O)s3)cc2)nc1)Nc1cc(C(F)(F)F)cnc1-c1ccc(C(F)(F)F)nc1 [Example 50, 1-[5,6′-bis(trifluoromethyl)-2,3′-bipyridin-3-yl]-3-(2-{4-[2-(2-oxo-1-pyrrolidinyl)-1,3-thiazol-5-yl]phenoxy}-5-pyrimidinyl)urea] | 0.04 | 0.012
CC(C)(C)c1cc(NC(=O)Nc2cnc(Oc3ccc(-c4cnc(N5CCCC5=O)s4)cc3)nc2)n(-c2ccc(S(N)(=O)=O)cc2)n1 [Example 66-72, 4-[3-(2-methyl-2-propanyl)-5-{[(2-{4-[2-(2-oxo-1-pyrrolidinyl)-1,3-thiazol-5-yl]phenoxy}-5-pyrimidinyl)carbamoyl]amino}-1H-pyrazol-1-yl]benzenesulfonamide] | 0.05 | 0.032
Cc1ccc(-n2nc(C(C)(C)C)cc2NC(=O)Nc2cnc(Oc3ccc(-c4cnc(N5CCCC5=O)s4)cc3)nc2)cc1C [Example 65-1, 1-[1-(3,4-dimethylphenyl)-3-(2-methyl-2-propanyl)-1H-pyrazol-5-yl]-3-(2-{4-[2-(2-oxo-1-pyrrolidinyl)-1,3-thiazol-5-yl]phenoxy}-5-pyrimidinyl)urea] | 0.08 | 0.002
CC(C)(C)c1cc(NC(=O)Nc2cnc(Oc3ccc(-c4cnc(N5CCCC5=O)s4)cc3)nc2)n(C2CCOCC2)n1 [Example 80-2, 1-[3-(2-methyl-2-propanyl)-1-(tetrahydro-2 H-pyran-4-yl)-1H-pyrazol-5-yl]-3-(2-{4-[2-(2-oxo-1-pyrrolidinyl)-1,3-thiazol-5-yl]phenoxy}-5-pyrimidinyl)urea] | 0.07 | –
CC(=O)Nc1ccc(-n2nc(C(C)(C)C)cc2NC(=O)Nc2cnc(Oc3ccc(-c4cnc(N5CCCC5=O)s4)cc3)nc2)cc1 [Example 66-28, N-{4-[3-(2-methyl-2-propanyl)-5-{[(2-{4-[2-(2-oxo-1-pyrrolidinyl)-1,3-thiazol-5-yl]phenoxy}-5-pyrimidinyl)carbamoyl]amino}-1H-pyrazol-1-yl]phenyl}acetamide] | 0.08 | 0.014
Cc1ccccc1-n1nc(C(C)(F)F)cc1NC(=O)Nc1cnc(Oc2ccc(-c3cnc(N4CCCC4=O)s3)cc2)nc1 [Example 72-3, 1-[3-(1,1-difluoroethyl)-1-(2-methylphenyl)-1H-pyrazol-5-yl]-3-(2-{4-[2-(2-oxo-1-pyrrolidinyl)-1,3-thiazol-5-yl]phenoxy}-5-pyrimidinyl)urea] | 0.06 | 0.018
Cc1ccccc1-n1nc(C(F)(F)F)cc1NC(=O)Nc1cnc(Oc2ccc(-c3cnc(N4CCCC4=O)s3)cc2)nc1 [Example 72-1, 1-[1-(2-methylphenyl)-3-(trifluoromethyl)-1H-pyrazol-5-yl]-3-(2-{4-[2-(2-oxo-1-pyrrolidinyl)-1,3-thiazol-5-yl]phenoxy}-5-pyrimidinyl)urea] | 0.05 | 0.011
